Laboratory results reported in patent US11312758B2, “Peptides with vasodilatory and/or diuretic functions” (National University of Singapore, priority 2016, dated 2022).
Several values for one entry are separate records, joined by “and”; a condition that tells them apart may be missing. Equal entries are not always repeated. Positions of bridges follow the written chain, without caps; N, C: chain ends. Residues, ends and D or L forms follow the SMILES beside them.

Experiments:
rat NPR-A [1] = biological target: T1, rat NPR-A (Rattus norvegicus, UniProt P18910); assay: Whole cell cGMP assay, 30 min end-point dose-response in CHO-K1 cells transiently expressing NPR-A; format: cell-based
T1 construct: expressed in transfected cells; host or cells: CHO-K1
T1 sequence (P18910 29-1057): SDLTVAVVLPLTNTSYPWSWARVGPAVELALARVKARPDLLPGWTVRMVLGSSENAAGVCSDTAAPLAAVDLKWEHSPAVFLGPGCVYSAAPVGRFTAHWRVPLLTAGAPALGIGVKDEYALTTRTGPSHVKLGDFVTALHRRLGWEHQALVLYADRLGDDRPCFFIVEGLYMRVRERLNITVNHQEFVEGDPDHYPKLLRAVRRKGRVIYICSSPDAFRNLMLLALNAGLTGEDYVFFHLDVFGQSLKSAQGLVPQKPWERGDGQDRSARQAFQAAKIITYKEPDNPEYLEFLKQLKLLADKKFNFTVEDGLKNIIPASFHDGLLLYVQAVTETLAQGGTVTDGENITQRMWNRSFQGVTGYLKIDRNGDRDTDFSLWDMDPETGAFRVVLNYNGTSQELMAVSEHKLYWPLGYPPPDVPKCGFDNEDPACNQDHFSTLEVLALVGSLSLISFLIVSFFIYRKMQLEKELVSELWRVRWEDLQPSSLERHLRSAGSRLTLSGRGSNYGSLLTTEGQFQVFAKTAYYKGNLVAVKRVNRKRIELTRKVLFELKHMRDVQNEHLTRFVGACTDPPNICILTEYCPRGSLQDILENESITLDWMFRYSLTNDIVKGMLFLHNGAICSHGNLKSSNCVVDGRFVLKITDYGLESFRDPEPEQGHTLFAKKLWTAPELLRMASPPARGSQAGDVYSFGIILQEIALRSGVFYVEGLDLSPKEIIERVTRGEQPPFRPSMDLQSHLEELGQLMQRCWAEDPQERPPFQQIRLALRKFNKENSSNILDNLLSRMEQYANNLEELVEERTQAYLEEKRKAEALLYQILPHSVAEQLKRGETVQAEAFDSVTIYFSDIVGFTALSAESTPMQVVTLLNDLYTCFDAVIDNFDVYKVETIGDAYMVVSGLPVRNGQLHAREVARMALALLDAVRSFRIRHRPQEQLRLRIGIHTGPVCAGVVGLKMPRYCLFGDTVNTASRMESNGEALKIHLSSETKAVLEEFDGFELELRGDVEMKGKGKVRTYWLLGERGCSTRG
Experimental: (§1) The experiments were performed as described in Sridharan et al., [Biochem J 469 (2): 255-66 (2015)]. Dulbecco's modified Eagle's medium supplemented with 10% fetal bovine serum, 100 U/ml penicillin and 100 μg/ml streptomycin and 2 mM glutamine was used to grow CHO-K1 cells in a humidified incubator at 37° C. with 5% CO2. The cells were maintained by sub-culturing using 0.5% trypsin every three days. Cells (1×10^5) were seeded per well in 24-well plate and grown for 16 h. Cells in each well were transfected with 0.8 μg of plasmid encoding rat NPR-A using 2 μl of Lipofectamine™ 2000 transfection reagent. Cells were treated with the peptides 24 h after transfection.
NPR-A transfected CHO-K1 cells were treated with varying concentrations of peptides (10 nM to 10 μM dissolved in basal media containing 0.5 mM IBMX) for 30 min. The end-point accumulation of cGMP was measured after cell-lysis with 200 μl of 0.1 N HCl using Enzo life sciences cGMP ELISA kit (manufacturer's protocol).

[2] = tested on: anesthetized male SD rats; assay: In-vivo activity assay: peptide infusion in anesthetized rats (MAP, HR, PP, urine flow); design: species or system rat
Experimental: Male Sprague-Dawley (SD) rats (220-280 g) were obtained from Invivos, Singapore. Animals were acclimatized in the Animal Holding unit, NUS for 3 days before the experiment. The experiments were conducted under the guidance and approval of Institutional Animal Care and Use Committee, NUS (041/12).
The experiments were performed as described in Sridharan et al., [Biochem J 469 (2): 255-66 (2015)]. In brief, animals were anesthetized with sodium pentobarbital (60-70 mg/kg) and catheters were inserted in femoral artery, vein and urinary bladder. The body temperature of the animals was maintained using a thermostatic heat pad at 37° C. Continuous infusions (2 ml/h) of 0.2% BSA saline (with or without peptide) was administered through the femoral vein while a pressure transducer attached to the femoral artery recorded on-line changes in mean arterial pressure (MAP), heart rate (HR) and pulse pressure (PP). Urine was collected and the volume was measured after every 10 min. Experiments encompassed control (2×10 min), experimental (1×10 min) and recovery (4×10 min) periods. All animals were euthanized at the end of the experiment in carbon-di-oxide chambers.

rat NPR-A [3] = biological target: T1, rat NPR-A; assay: Time-chase study of cGMP accumulation (NPR-A activation kinetics) at EC50 concentration of peptide; format: cell-based
Experimental: as §1
Time-chase study was performed by treating the cells with EC50 concentration of the peptides. The reactions were terminated at the indicated time-points (0, 2, 5, 10, 20 and 30 min) by treating the cells with 0.1 N HCl. The cGMP concentration in the cell lysate was measured using cGMP ELISA kit (Enzo life sciences).

`CC[C@H](C)[C@@H]1NC(=O)[C@H](CC(=O)O)NC(=O)[C@H](CO)NC(=O)[C@H]([C@@H](C)O)NC(=O)[C@H](Cc2c[nH]cn2)NC(=O)[C@H](CO)NC(=O)[C@H]([C@@H](C)CC)NC(=O)[C@H](CCCNC(=N)N)NC(=O)[C@H](CC(=O)O)NC(=O)[C@H]([C@@H](C)CC)NC(=O)[C@H](CCCNC(=N)N)NC(=O)[C@H](CCCNC(=N)N)NC(=O)CNC(=O)[C@H](Cc2ccccc2)NC(=O)[C@@H](NC(=O)[C@H](CO)NC(=O)[C@@H](NC(=O)[C@H](CC(C)C)NC(=O)[C@H](CC(C)C)NC(=O)CN)[C@@H](C)CC)CSSC[C@@H](C(=O)N[C@@H](CCCNC(=N)N)C(=O)N[C@@H](Cc2c[nH]cn2)C(=O)O)NC(=O)CNC1=O` [^GRDK-Ring] (H-GLLISCFGRRIDRISHTSDIGCRH-OH; disulfide 6-22; N-terminus and C-terminus assumed) was tested. Which “NPR-A activation potency, Ratio compared ANP” value (rat NPR-A [1]) did it give?
The value was 2.9.

What about the “fold higher potency compared to K-Ring” value (rat NPR-A [1]; cGMP response) of the same molecule?
The value was 5 fold.

And the “NPR-A activation potency, Ratio compared wild type NPs” value (rat NPR-A [1]; negative = more potent than wild type)?
The value was −4.8.

What about the “HR Rate of change per unit change in MAP” value ([2]; 2 nmol/kg/min infusion) of the same molecule?
The value was 2.82.

What about the “PP Rate of change per unit change in MAP” value ([2]; 2 nmol/kg/min infusion) of the same molecule?
Its value is 0.7.

What about the “Heart rate Peak response” value ([2]; 2.0 nmol/kg/min infusion) of the same molecule?
Its value is −44.8±20.2 BPM and −44.8 ± 20.1 BPM.

And the “Heart rate Peak time” value ([2]; 2.0 nmol/kg/min infusion)?
The value was 30 min.

And the “Mean arterial pressure Peak response” value ([2]; 2.0 nmol/kg/min infusion)?
The value was −11.3 ± 4.3 mmHg.

What about the “Mean arterial pressure Peak time” value ([2]; 2.0 nmol/kg/min infusion) of the same molecule?
The value was 30 min.

And the “Pulse pressure Peak time” value ([2]; 2.0 nmol/kg/min infusion)?
Its value is 20 min.

What about the “Urine flow rate Peak response” value ([2]; 2.0 nmol/kg/min infusion) of the same molecule?
Its value is under 2 µL/min.

What about the “Rate of generation of cGMP, Ratio compared ANP” value (rat NPR-A [3]) of the same molecule?
The value was 70.5.

And the “Rate of generation of cGMP, Ratio compared wild type NPs” value (rat NPR-A [3])?
Its value is 5.0.

What about the “Rate of generation of cGMP” value (rat NPR-A [3]; EC50 concentration of peptide) of the same molecule?
The value was 0.113 pmol cGMP/pmol peptide.

And the “rate of generation of cGMP compared to K-Ring” value (rat NPR-A [3]; EC50 concentration of peptide)?
Its value is “slightly increased rate of cGMP production”.

What about the “time of peak / maximum accumulation of cGMP” value (rat NPR-A [3]; EC50 concentration of peptide) of the same molecule?
The value was 10 min.
